Results reported in patent US7276337B2, “Compositions and methods for visual ribonuclease detection assays” (Integrated DNA Technologies, Inc., priority 2000, dated 2007).

Legend:
Ribonuclease T1 = target: T1, Ribonuclease T1 (Aspergillus oryzae, UniProt P00651); test: Visual detection ribonuclease assay, cleavage of Substrate ODN by RNase T1; type: biochemical; design: key to Sensitivity of Substrate ODN to Ribonuclease T1, relative signal intensity: +++ = maximum intensity; ++ = moderate intensity; + = faint but above background; − = negative (identical to background); settings: visual inspection, UV excitation, Substrate 500 nM, 37° C. 60 minutes
T1 sequence (P00651 27-130): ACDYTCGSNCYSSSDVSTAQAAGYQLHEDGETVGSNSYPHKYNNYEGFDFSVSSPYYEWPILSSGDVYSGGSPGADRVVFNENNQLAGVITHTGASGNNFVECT
Procedure: (§1) Nuclease assays were conducted using the method of the invention with both visual and fluorometric detection methods. Substrates were individually mixed in 1× Assay Buffer at a concentration of 50 nM (50 pmoles oligonucleotide in 1 ml volume) for fluorometric detection or at a concentration of 500 nM (50 pmoles of oligonucleotide in 100 ul volume) for visual detection. Test nucleases were added to respective Assay Mixes beginning at 1 ul stock reagent and proceeding with a 1:10 serial dilution until undetectable. Reaction mixes were incubated at 37° C. for 60 minutes. Fluorometric detection was performed as outlined in Example 2. Visual detection was performed as outlined in Example 1.
(§2) Table 7: Sensitivity of different Substrate ODNs to Ribonuclease T1. A series of Substrate ODNs were synthesized and tested for sensitivity to RNase T1 degradation. Stock enzyme was serial diluted to achieve final concentrations of 0.001 units/ml, 0.0001 units/ml, and 0.00001 units/ml as indicated. Reactions were examined for fluorescence emission by visual inspection using an ultraviolet (UV) light source for excitation. Results were scored as +++, ++, +, or − based on relative signal intensity.
(§3) It is commonly accepted that fluorometry provides for high sensitivity. To be useful, the visual method must also offer high sensitivity. Assays were conducted using the method of the invention with visual detection. Substrate SEQ ID NO:30 was mixed in 1× Assay Buffer at a concentration of 500 nM (50 pmoles ODN in 100 ul volume) in thin-walled, UV transparent tubes. […] Dilutions of stock RNase A, RNase 1, and RNase T1 were made in water. Undiluted and diluted nuclease (1 ul) was added to respective 100 ul Assay Mixes resulting in final dilution factors of 10^−2, 10^−3, 10^−4, 10^−5, 10^−6, and 10^−7. Assays were incubated at room temperature for 10 minutes and visually examined for fluorescence emission with UV excitation. […] The experiment took about 30 minutes to perform, including 15 minutes to set-up serial dilutions, 10 minutes incubation, and 5 minutes to visualize and photograph. Thus the method of the invention allows for a rapid, simple, and convenient visual assay for the presence of ribonuclease activity.

Ribonuclease A = target: T2, Ribonuclease A (Bos taurus, UniProt P61823); test: Visual detection ribonuclease assay, cleavage of Substrate ODN by RNase A; type: biochemical, mammalian; design: key to Sensitivity of Substrate ODN to Ribonuclease A, relative signal intensity: +++ = maximum intensity; ++ = moderate intensity; + = faint but above background; − = negative (identical to background); settings: visual inspection, UV excitation, Substrate 500 nM, 37° C. 60 minutes
T2 sequence (P61823 27-150): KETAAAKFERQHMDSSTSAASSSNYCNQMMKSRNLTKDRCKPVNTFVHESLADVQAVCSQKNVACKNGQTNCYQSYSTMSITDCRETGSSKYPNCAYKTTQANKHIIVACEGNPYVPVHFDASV
Procedure: Nuclease assays were conducted using the methods of the invention. SEQ ID NO:2 and SEQ ID NO:30 oligonucleotides were individually mixed in 1× Assay Buffer at a concentration of 500 nM (50 pmoles ODN in 100 ul volume) in thin-walled, UV transparent microtubes. RNase A (1 ul, diluted to 0;1 ug/ul) was added to the respective Assay Mixes. […] Assays were set up directly in microtubes as follows:
Assay Mixes were incubated at room temperature for 10 minutes. Assays were visually examined for fluorescence emission directly in the assay tubes without further manipulation. Tubes were suspended above an ultraviolet light source, visually inspected, and photographed using a digital camera. […] The “positive” and “control” reactions appeared markedly different and were easily distinguished. […] The “positive” and “control” reactions were not markedly different to visual inspection.
as §1
as §2, with “6:” for “7:”, “A.” for “T1.”, “A” for “T1”, “1 ng/ml, 100 pg/ml,” for “0.001 units/ml, 0.0001 units/ml,”, “10 pg/ml” for “0.00001 units/ml”
as §3

Row | Substance | Sensitivity of Substrate ODN to Ribonuclease T1, relative signal intensity (Ribonuclease T1; RNase T1 10^−3 units/ml) | Sensitivity of Substrate ODN to Ribonuclease T1, relative signal intensity (Ribonuclease T1; RNase T1 10^−4 units/ml) | Sensitivity of Substrate ODN to Ribonuclease T1, relative signal intensity (Ribonuclease T1; RNase T1 10^−5 units/ml) | Sensitivity of Substrate ODN to Ribonuclease A, relative signal intensity (Ribonuclease A; RNase A 10 pg/ml) | Sensitivity of Substrate ODN to Ribonuclease A, relative signal intensity (Ribonuclease A; RNase A 100 pg/ml) | Sensitivity of Substrate ODN to Ribonuclease A, relative signal intensity (Ribonuclease A; RNase A 1 ng/ml)
1 | 5′ Fluorescein-AAaAA-Dabcyl 3′ (NAAAAAN; 5' fluorescein and 3' Dabcyl labels, nucleotide chemistry not given here) [SEQ ID NO:6] | − | − | − | − | − | −
2 | 5′ Fluorescein-AAcAA-Dabcyl 3′ (NAACAAN; 5' fluorescein and 3' Dabcyl labels, nucleotide chemistry not given here) [SEQ ID NO:5] | − | − | − | − | + | ++
3 | 5′ Fluorescein-AAgAA-Dabcyl 3′ (NAAGAAN; 5' fluorescein and 3' Dabcyl labels, nucleotide chemistry not given here) [SEQ ID NO:4] | + | − | − | − | − | −
4 | 5′ Fluorescein-AacAA-Dabcyl 3′ (NAACAAN; 5' fluorescein and 3' Dabcyl labels, nucleotide chemistry not given here) [SEQ ID NO:8] | − | − | − | + | +++ | +++
5 | 5′ Fluorescein-AaggucA-QSY-7 3′ (NAAGGUCAN; 5' fluorescein and 3' QSY-7 labels, nucleotide chemistry not given here) [SEQ ID NO:28] | +++ | +++ | ++ | + | ++ | +++
6 | 5′ Fluorescein-AagucA-Dabcyl 3′ (NAAGUCAN; 5' fluorescein and 3' Dabcyl labels, nucleotide chemistry not given here) [SEQ ID NO:24] | ++ | + | − | − | + | +++
7 | 5′ Fluorescein-AagucA-QSY-7 3′ (NAAGUCAN; 5' fluorescein and 3' QSY-7 labels, nucleotide chemistry not given here) [SEQ ID NO:27] | +++ | ++ | + | + | ++ | +++
8 | 5′ Fluorescein-AaugcA-QSY-7 3′ (NAAUGCAN; 5' fluorescein and 3' QSY-7 labels, nucleotide chemistry not given here) [SEQ ID NO:29] | +++ | +++ | ++ | + | +++ | +++
9 | 5′ Fluorescein-AcgaA-Dabcyl 3′ (NACGAAN; 5' fluorescein and 3' Dabcyl labels, nucleotide chemistry not given here) [SEQ ID NO:12] | +++ | ++ | − | − | − | ++
10 | 5′ Fluorescein-AcgcA-Dabcyl 3′ (NACGCAN; 5' fluorescein and 3' Dabcyl labels, nucleotide chemistry not given here) [SEQ ID NO:13] | +++ | ++ | − | − | + | ++
11 | 5′ Fluorescein-AcggA-Dabcyl 3′ (NACGGAN; 5' fluorescein and 3' Dabcyl labels, nucleotide chemistry not given here) [SEQ ID NO:14] | +++ | +++ | + | − | + | ++
12 | 5′ Fluorescein-AcguA-Dabcyl 3′ (NACGUAN; 5' fluorescein and 3' Dabcyl labels, nucleotide chemistry not given here) [SEQ ID NO:15] | +++ | + | − | − | + | +++
13 | 5′ Fluorescein-AcuaA-Dabcyl 3′ (NACUAAN; 5' fluorescein and 3' Dabcyl labels, nucleotide chemistry not given here) [SEQ ID NO:17] | − | − | − | − | + | +++
